“And” between values parts separate entries of the source, which are not always exact repeats. Equal values may be shown once. Ends that are not written are not given here. Peptide text beside a SMILES is read from it.
Columns and labels:
[1] = target: human PAR2 on Flp-In CHO-hPAR2 cells (human) (UniProt P55085); experiment: time-resolved fluorescence competition binding on cells (Eu-tagged ligand, DELFIA); CHO-hPAR2 cells in 384-well plates, blocked with 2% BSA; Eu-tagged-2f-LIGRLO(dtpa)-NH2 300 nM together with competitor for 15 min; washed; DELFIA Enhancement Solution
hPAR2 [2] = target: T1, hPAR2 (Homo sapiens, UniProt P55085); experiment: Ca^2+ flux assay, agonist mode, 1321N1-hPAR2 cells; assay type: cell-based; settings: for Ca2+ response (Fig 2c), individual replicate values: hPAR2
T1 sequence (P55085 26-397): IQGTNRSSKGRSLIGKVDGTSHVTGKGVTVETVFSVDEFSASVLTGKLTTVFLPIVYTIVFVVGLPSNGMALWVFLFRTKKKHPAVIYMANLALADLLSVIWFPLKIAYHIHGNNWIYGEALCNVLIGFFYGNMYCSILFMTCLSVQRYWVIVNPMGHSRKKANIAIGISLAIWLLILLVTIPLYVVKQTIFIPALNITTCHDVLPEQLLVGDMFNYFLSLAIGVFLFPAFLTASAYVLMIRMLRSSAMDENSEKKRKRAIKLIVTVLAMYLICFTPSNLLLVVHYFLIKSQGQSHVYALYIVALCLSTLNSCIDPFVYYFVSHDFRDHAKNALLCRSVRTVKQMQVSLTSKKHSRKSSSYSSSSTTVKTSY
Method: Cells were loaded with Fluo-8 NW calcium dye (AAT Bioquest) for 30 min at 37 °C before compounds in Hank’s balanced salt solution (HBSS, ThermoFisher Scientific) with 20 mM HEPES (ThermoFisher Scientific), 0.1% bovine serum albumin (BSA, Sigma) and 0.5% DMSO were added and simultaneously evaluated for changes in intracellular [Ca^2+] using FLIPR TETRA (Molecular Devices) to detect agonism. For each concentration, the difference between the maximum peak Ca^2+ response and baseline response is reported. […] Antagonism experiments were also carried out on 1321N1-PAR2[WT], 1321N1-PAR2[F154A], and 1321N1-PAR2[G157C] as described. Experiments with trypsin in 1321N1-hPAR2 cells were performed in the presence of 1 µM Vorapaxar (Chemtronica) to remove any interference of PAR1 activity. […] Antagonism experiments for CHO-hPAR2 and HT-29 cells were performed in 96-well plates at 30,000 cells/well. Cells were loaded with Fluo-3 AM calcium dye (Sigma-Aldrich) for 60 min at 37 °C in HBSS with 1% FBS, 0.2% pluronic acid, 20 mM HEPES and 2.5 mM probenecid prior to the addition of antagonist. The antagonist was pre-incubated for 60 min at 37 °C followed by the addition of bovine trypsin (30 nM) at EC80. Intracellular [Ca^2+] flux was measured using FLIPR TETRA (Molecular Devices) and the difference between the maximum peak Ca^2+ response and baseline response is reported.
Binding data were analysed using the One site – Fit Ki model in GraphPad Prism 8 (GraphPad Software) to determine binding affinity. Pharmacology in vitro potency data was analysed with a 4-parameter logistic fit using the equation y = Bottom + (Top − Bottom)/[…] where y is the response, x is the 10-logarithm of the drug concentration, Bottom is no response and Top is full response in GraphPad Prism 8 or Genedata Screener (Genedata). pEC50 and pIC50 data are presented as mean ± standard error of the mean (s.e.m.) derived from the number of independent experiments stated. Schild slope analysis was calculated using Graphpad Prism 8 Gaddum/Schild EC50 global fitting (shared model parameters between all data sets) competitive model. […] Schild slope quantifies the shifts in agonist response in the presence of antagonist, a Schild slope of 1 indicates the antagonist is competitive and extra-sum-of-squares F-test (p < 0.05) was used to compare the calculated Schild slope against a hypothetical Schild slope of 1. […] The relative activity was calculated using (EmaxEC50’)/(Emax’EC50) with the Hill slope help constant at 1. EC50’ and Emax’ denote the EC50 and Emax in the absence of allosteric modulator, while EC50 and Emax denote those measured in the presence of allosteric modulator. When the Hill slope = 1, the relative activity plot approaches an asymptote corresponding to the estimate of the γ value.

hPAR2 [3] = target: T1, hPAR2; experiment: pERK1/2 assay, agonist mode, U2OS-hPAR2 cells; assay type: cell-based
hPAR2 [4] = target: T1, hPAR2; experiment: Radiolabelled competition binding assay against [^3H]-GB110 on HEKexpi293F membranes; design: expressed in transfected cells
Method: The reaction was then filtered through 0.5% PEI-coated filter plates using a BiomekFX. The filter plate was then dried for 1 h at 50 °C. Scintillation fluid was added to each well, before reading the plate in a Microbeta reader.
Binding data were analysed using the One site – Fit Ki model in GraphPad Prism 8 (GraphPad Software) to determine binding affinity. Pharmacology in vitro potency data was analysed with a 4-parameter logistic fit using the equation y = Bottom + (Top − Bottom)/[…] where y is the response, x is the 10-logarithm of the drug concentration, Bottom is no response and Top is full response in GraphPad Prism 8 or Genedata Screener (Genedata). pEC50 and pIC50 data are presented as mean ± standard error of the mean (s.e.m.) derived from the number of independent experiments stated. Schild slope analysis was calculated using Graphpad Prism 8 Gaddum/Schild EC50 global fitting (shared model parameters between all data sets) competitive model. The most rigorous method for quantifying agonist-antagonist interactions is to globally fit the Gaddum/Shild model to all agonist dose–response curves. Schild slope quantifies the shifts in agonist response in the presence of antagonist, a Schild slope of 1 indicates the antagonist is competitive and extra-sum-of-squares F-test (p < 0.05) was used to compare the calculated Schild slope against a hypothetical Schild slope of 1. […] The relative activity was calculated using (EmaxEC50’)/(Emax’EC50) with the Hill slope help constant at 1. EC50’ and Emax’ denote the EC50 and Emax in the absence of allosteric modulator, while EC50 and Emax denote those measured in the presence of allosteric modulator. When the Hill slope = 1, the relative activity plot approaches an asymptote corresponding to the estimate of the γ value.

hPAR2 [5] = target: T1, hPAR2; experiment: IP1 assay, agonist mode, 1321N1-hPAR2 cells; assay type: cell-based
hPAR2 [6] = target: T1, hPAR2; experiment: β-arrestin-2 recruitment, agonist mode, U2OS-hPAR2 cells; assay type: cell-based
[7] = target: human protease-activated receptor-2 (PAR2) in membranes of HEKexpi293F cells (human, UniProt P55085 26-397); experiment: radioligand binding; competition against [3H]-GB110 (25 nM) on membranes (30 µg protein per well) of HEKexpi293F cells expressing human PAR2; 2 h at room temperature; filtration; One site - Fit Ki model; settings: one partner purified

Molecule: 2f-LIGRLO-NH2 (peptide)
- pKA (equilibrium dissociation constant of the orthosteric ligand) [1]: 6.1 pKA

Molecule: CC[C@H](C)[C@H](NC(=O)[C@H](CC(C)C)NC(=O)[C@@H](N)CO)C(=O)NCC(=O)N[C@@H](CCCCN)C(=O)N[C@H](C(N)=O)C(C)C [SLIGKV-NH2, reference compound] (H-SLIGKV-NH2)
- EC50 (hPAR2 [2]): 1.26 µM
- Ca2+ response (Fig 2c), individual replicate values (hPAR2 [2]; [compound],M -3.69897): 103.767 and 118.778 and 97.8658 and 87.8393
- Ca2+ response (Fig 2c), individual replicate values (hPAR2 [2]; [compound],M -4.17609): 56.3274 and 105.715 and 98.496 and 100.501
- Ca2+ response (Fig 2c), individual replicate values (hPAR2 [2]; [compound],M -4.65321): 93.626 and 84.0006 and 100.043 and 97.9804
- Ca2+ response (Fig 2c), individual replicate values (hPAR2 [2]; [compound],M -5.13033): 68.0728 and 71.1667 and 73.1719 and 72.2553
- Ca2+ response (Fig 2c), individual replicate values (hPAR2 [2]; [compound],M -5.60746): 41.6601 and 53.119 and 63.0309 and 60.338
- Ca2+ response (Fig 2c), individual replicate values (hPAR2 [2]; [compound],M -6.08458): 28.1959 and 44.9832 and 36.0453 and 35.9307
- Ca2+ response (Fig 2c), individual replicate values (hPAR2 [2]; [compound],M -6.5617): 11.2941 and 18.1695 and 18.1121 and 22.4665
- Ca2+ response (Fig 2c), individual replicate values (hPAR2 [2]; [compound],M -7.03882): 4.705 and 12.8411 and -0.8522 and 3.559
- Ca2+ response (Fig 2c), individual replicate values (hPAR2 [2]; [compound],M -7.51594): -1.139 and 5.679 and 1.6687 and -1.54
- Ca2+ response (Fig 2c), individual replicate values (hPAR2 [2]; [compound],M -7.99306): -2.17 and 3.044 and 0.4082 and -4.863
- EC50 (hPAR2 [3]): 10 µM
- agonist response (Fig 2e), individual replicate values (hPAR2 [3]; [compound],M -4.04576): 99.6308 and 91.4672 and 59.9255 and 93.3534 and 82.1422 and 106.727 and 95.3302 and 107.361
- agonist response (Fig 2e), individual replicate values (hPAR2 [3]; [compound],M -4.52288): 97.6379 and 75.0545 and 42.279 and 78.3436 and 72.4641 and 77.8082 and 83.5277 and 91.4836
- agonist response (Fig 2e), individual replicate values (hPAR2 [3]; [compound],M -5): 31.7126 and 38.7964 and 29.9003 and 52.5593 and 35.7079 and 56.5471 and 40.6895 and 78.4826
- agonist response (Fig 2e), individual replicate values (hPAR2 [3]; [compound],M -5.47712): -6.206 and 24.6437 and 9.489 and 50.4555 and 3.733 and 21.3761 and 7.93 and 32.2657
- agonist response (Fig 2e), individual replicate values (hPAR2 [3]; [compound],M -5.95424): -12.6824 and 18.9444 and 7.502 and 22.8061 and -1.381 and 9.052 and -3.256 and 12.5644
- agonist response (Fig 2e), individual replicate values (hPAR2 [3]; [compound],M -6.43136): -23.75 and 16.3682 and -5.093 and 16.2671 and -4.436 and 12.7209 and -3.872 and 14.813
- agonist response (Fig 2e), individual replicate values (hPAR2 [3]; [compound],M -6.90849): 15.5205 and 19.768 and 3.339 and 15.6565 and 2.966 and 12.1455 and -0.4138 and 11.0577
- agonist response (Fig 2e), individual replicate values (hPAR2 [3]; [compound],M -7.38561): -7.931 and 10.0627 and -5.815 and 6.181 and -11.0844 and 9.039 and -0.4366 and 14.6989
- agonist response (Fig 2e), individual replicate values (hPAR2 [3]; [compound],M -7.86273): -16.2411 and 11.2751 and -1.735 and 6.359 and -8.732 and 10.0488 and 1.766 and 13.489
- agonist response (Fig 2e), individual replicate values (hPAR2 [3]; [compound],M -8.33985): -5.583 and 13.904 and -4.7322 and 9.728 and -8.195 and 13.5647 and -0.3681 and 7.371
- Ki (hPAR2 [4]): 0.468 µM
- remaining binding at […] (hPAR2 [4]; 2 h, read-out: specific binding of [^3H]-GB110, Fig 2b source data): 100% and 94.6%
- EC50 (hPAR2 [5]): 25.1 µM
- EC50 (hPAR2 [6]): 12.6 µM
- agonist response (Fig 2f), individual replicate values (hPAR2 [6]; [compound],M -4.04576): 97.3808 and 92.2809 and 86.7862 and 73.31 and 95.9148 and 84.3134
- agonist response (Fig 2f), individual replicate values (hPAR2 [6]; [compound],M -4.52288): 92.9579 and 90.0884 and 64.3276 and 56.5062 and 77.8703 and 74.4284
- agonist response (Fig 2f), individual replicate values (hPAR2 [6]; [compound],M -5): 55.0604 and 54.5545 and 55.8646 and 38.6159 and 58.5041 and 56.712
- agonist response (Fig 2f), individual replicate values (hPAR2 [6]; [compound],M -5.47712): 26.8191 and 21.9568 and 32.045 and 20.5609 and 38.941 and 38.2123
- agonist response (Fig 2f), individual replicate values (hPAR2 [6]; [compound],M -5.95424): 3.59 and 16.887 and 24.5009 and 9.51 and 14.8748 and 18.3177
- agonist response (Fig 2f), individual replicate values (hPAR2 [6]; [compound],M -6.43136): -3.351 and 12.8282 and 7.2581 and 5.779 and 4.6 and 10.8974
- agonist response (Fig 2f), individual replicate values (hPAR2 [6]; [compound],M -6.90849): 4.102 and 7.728 and 1.445 and -0.0221 and 3.388 and 8.399
- agonist response (Fig 2f), individual replicate values (hPAR2 [6]; [compound],M -7.38561): 1.29 and 11.1269 and 3.313 and 3.3558 and 1.549 and 0.5881
- agonist response (Fig 2f), individual replicate values (hPAR2 [6]; [compound],M -7.86273): -1.101 and 4.782 and 4.705 and 0.01875 and -2.103 and 4.2334
- agonist response (Fig 2f), individual replicate values (hPAR2 [6]; [compound],M -8.33985): -5.551 and 2.218 and -0.6869 and -0.9848 and 0.2659 and 2.337

B1: SLIGKV-NH2 (peptide)
peptide: SLIGKV-NH2
notes: also called human tethered ligand peptide; source: synthetic peptide, custom synthesised by ThermoFisher Scientific
- pKi [7]: 6.33 pKi
